Measured values as given in US11654138B2, “Therapeutic agents for treating and preventing autoimmune diseases and cancer and a screening method” (KING FAISAL UNIVERSITY, priority 2019, dated 2023).
Numbering of substitutions follows the chain as printed.

Columns and labels:
Pocket X-mutant Arid5a = target: T1, Pocket X-mutant Arid5a (Mus musculus, UniProt Q3U108, F56C/L84A/V134A/Y137A); assay: Luciferase assay on Pocket X-mutant Arid5a (Phe56, Leu84, Val134, Tyr137 substitutions); type: cell-based; conditions: 40 μM
T1 construct: Flag; expressed in transfected cells; host or cells: HEK293T
T1 sequence (Q3U108 1-590 F56C/L84A/V134A/Y137A): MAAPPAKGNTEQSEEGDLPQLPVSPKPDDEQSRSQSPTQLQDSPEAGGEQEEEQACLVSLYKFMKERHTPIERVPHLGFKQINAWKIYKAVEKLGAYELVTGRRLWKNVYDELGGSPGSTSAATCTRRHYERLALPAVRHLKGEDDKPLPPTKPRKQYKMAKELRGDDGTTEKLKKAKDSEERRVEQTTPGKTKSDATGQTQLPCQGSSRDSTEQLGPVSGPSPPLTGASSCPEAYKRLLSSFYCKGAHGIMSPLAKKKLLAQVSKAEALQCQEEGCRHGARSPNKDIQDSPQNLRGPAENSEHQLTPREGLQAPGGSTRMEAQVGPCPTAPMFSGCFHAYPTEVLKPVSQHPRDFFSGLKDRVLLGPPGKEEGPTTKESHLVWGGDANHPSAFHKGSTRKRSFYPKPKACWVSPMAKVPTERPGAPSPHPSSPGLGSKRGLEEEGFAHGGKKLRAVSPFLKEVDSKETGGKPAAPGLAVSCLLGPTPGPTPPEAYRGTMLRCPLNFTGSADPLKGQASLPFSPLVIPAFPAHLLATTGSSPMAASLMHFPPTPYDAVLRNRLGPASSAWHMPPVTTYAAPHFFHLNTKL
Text: Briefly, HEK293T cells were transfected with luciferase pGL-3 and empty pcDNA3.1 plasmids (Control), or pGL-3 plasmid encoding the 3′UTR of OX40, Il6 or Stat3, together with Arid5a-expressing pcDNA3.1 plasmid. Substitution mutations were introduced to the wild-type (WT) Arid5a at Phe56, Leu84, Val134 and Tyr137. Single point mutations were used to substitute Phe56 (TTC) with Cys (TGC) and Val134 (GTC) with Ala (GCC). Sequential point mutations were used to substitute Leu84 (CTG) with Ala (GCG) and Tyr137 (TAT) with Ala (GCT). Luciferase activity from cell lysates is shown relative to Control in FIGS. 2A-2C.

Arid5a = target: T2, Arid5a (Mus musculus, UniProt Q3U108); assay: Luciferase assay of Arid5a stabilizing function on 3′UTR of target mRNAs in HEK293T cells; type: cell-based
T2 construct: Flag; expressed in transfected cells; host or cells: HEK293T
T2 sequence (Q3U108 1-590): T1 sequence (Q3U108 1-590 F56C/L84A/V134A/Y137A) with C56F, A84L, A134V, A137Y
Description: Briefly, HEK293T cells were transfected with luciferase pGL-3 and empty pcDNA3.1 plasmids (Control), or pGL-3 plasmid encoding the 3′UTR of OX40, Il6 or Stat3, together with Arid5a-expressing pcDNA3.1 plasmid. The cells were treated with DMSO (Control and Arid5a) or POE (10-60 μM) dissolved in DMSO. The mouse Arid5a (NP_001165676.1) cDNA (WT; ENSMUST00000115032.7) was cloned in a Flag-tagged pcDNA3.1 plasmid at Xba1 and Ecor1. Renilla-expressing plasmid was used as a control. Luciferase activity from cell lysates is shown relative to Control in FIGS. 1A-1C.
HEK293 T cells (ATCC) were transfected (Lipofectamine LTX; Invitrogen) with luciferase pGL-3 and empty peDNA 3.1 plasmids (Control), or pGL-3 plasmid encoding the 3′UTR of IL6 together with Arid5a-expressing pcDNA3.1 plasmid. Renila-expressing plasmid was used as a Control. The cells were treated with DMSO (Control and Arid5a) or POE or its analogs A1-3 (40 μM; Aurora) dissolved in DMSO. The mouse Arid5a (NP_001165676.1) cDNA (WT; ENSMUST00000115032.7) was cloned in a Flag-tagged pcDNA3.1 plasmid at Xba1 and EcoR1.
To examine whether the Arid5a inhibitors interact with the target domain of Arid5a (Pocket X), substitution mutations were introduced to the wild-type (WT) Arid5a at Phe56, Tyr137 and His140 to produce mutant Arid5a (mArid5a). Mutations were introduced to substitute Phe56 with Cys, Tyr137 with Ala, and His140 with Ala. Luciferase activity from cell lysates was quantified using a Dual Luciferase kit (Promega) and the results were shown relative to the Control.

EAE = assay: Experimental autoimmune encephalomyelitis (EAE) model of multiple sclerosis; type: in vivo, C57BL/6 female mice
[1] = 0.5 mg i.p., day 24, vs corn oil, FIG. 5B

O=C(CSc1nnc(-c2ccncc2)o1)c1ccccc1 [POE, 1-Phenyl-2-(5-pyridin-4-yl-[1,3,4]oxadiazol-2-ylsulfanyl)-ethanone]
Inhibitory effect on stabilizing function of mutant Arid5a on OX40 3′UTR (Pocket X-mutant Arid5a; mutations at Phe56, Leu84, Val134, Tyr137, FIG. 2A): abolish the inhibitory effects of POE | Inhibitory effect on stabilizing function of mutant Arid5a on Il6 3′UTR (Pocket X-mutant Arid5a; mutations at Phe56, Leu84, Val134, Tyr137, FIG. 2B): abolish the inhibitory effects of POE | Inhibitory effect on stabilizing function of mutant Arid5a on Stat3 3′UTR (Pocket X-mutant Arid5a; mutations at Phe56, Leu84, Val134, Tyr137, FIG. 2C): abolish the inhibitory effects of POE | Arid5a stabilizing function on Il6 3′UTR (luciferase activity relative to Control) (Arid5a; 40 μM, HEK293 T cells, WT Arid5a, FIG. 6): abolished the stabilizing function of Arid5a | Arid5a stabilizing function on the OX40 3′UTR (luciferase activity relative to Control) (Arid5a; POE 10-60 μM, HEK293T cells, FIG. 1A): inhibits Arid5a stabilizing function | Arid5a stabilizing function on the Il6 3′UTR (luciferase activity relative to Control) (Arid5a; POE 10-60 μM, HEK293T cells, FIG. 1B): inhibits Arid5a stabilizing function | Arid5a stabilizing function on the Stat3 3′UTR (luciferase activity relative to Control) (Arid5a; POE 10-60 μM, HEK293T cells, FIG. 1C): inhibits Arid5a stabilizing function | EAE clinical scores (EAE; 0.5 mg i.p. per day, days 0-3, vs corn oil, FIG. 5A): reduces EAE clinical scores | Serum level of IL-6 (EAE; [1]): reduces serum levels of IL-6 and TNF-α | Serum level of TNF-α (EAE; [1]): reduces serum levels of IL-6 and TNF-α | Expression of OX40 mRNA in CD4+ T cells isolated from the CNS (EAE; 10 days after disease induction, FIG. 5D): reduces the expression of OX40 mRNA | Frequency of CD4+OX40+ T cells in the CNS (EAE; 10 days after disease induction, flow cytometry, FIG. 5E): reduces the frequency of CD4^+OX40^+ T cells | Level of IL-17 in culture supernatant of encephalitogenic CD4+ T cells on restimulation (EAE; lymph node cells restimulated with MOG35-55 and IL-23 72 h, FIG. 5C): reduces the level of IL-17
